Data as given in article PMC5994333, “-Chemical profiling and biological activity of Peperomia blanda (Jacq.) Kunth” (PeerJ, 2018).
≈ marks a conversion by molar mass, not a printed value.

Key:
[1] = tested on: murine myelomonocytic leukaemia (WEHI-3); test: MTT cytotoxicity assay, WEHI-3; assay type: cell-based; conditions: Mus musculus
From the text: (§1) In vitro cytotoxic potency of the investigated extracts was established using the colorimetric (MTT) assay. The three cancer cell lines involved were the human breast adenocarcinoma (MCF-7), murine myelomonocytic leukaemia (WEHI-3) and human promyelocytic leukaemia (HL-60). The three normal cell lines used were the human mammary epithelial cell line (MCF10A), primary dermal fibroblasts cell line (HDFa) and the human hepatic cell line (WRL-68). All cells were from American Type Culture Collection (ATCC) and were subcultured in tissue culture flask (75 cm) with RPMI1640 media mixed with 10% fetal bovine serum and 1% penicillin–streptomycin and kept in an incubator at 5% of CO2 saturation and 37 °C. The following solutions were prepared: crude extracts (dissolved in 1% DMSO) at various concentrations (100, 50, 25, 12.5, 6.3, 3.5, 1.5 and 0 µg/mL); and peperomin A, phytosterol mixture and standard drugs (Taxol and vinblastine) as positive controls at decreasing concentrations (50, 25, 12.5, 6.3, 3.5, 1.5, and 0 µg/mL). N,N′-diphenethyloxamide was not involved in the biological assay because of the low yield obtained. Extracts were incubated with the cancer cell lines for 72 h, and peperomin A and the phytosterol mixture were incubated for 24, 48 and 72 h. After the incubation periods, 20 µL of MTT solution (5 mg/mL) was added to each well and incubated for 4 h. To dissolve the formazan crystals formed, 100 µL of DMSO was added to each well. The IC50 values were calculated from the plot of cancer cell growth versus the concentration of extracts/compounds.

[2] = tested on: human promyelocytic leukaemia (HL-60); test: MTT cytotoxicity assay, HL-60; assay type: cell-based
From the text: as §1

[3] = tested on: human breast adenocarcinoma (MCF-7); test: MTT cytotoxicity assay, MCF-7; assay type: cell-based; conditions: for Selectivity index: ratio of mean IC50 in normal MCF10a over mean IC50 in MCF-7: Table 4; for IC50: Homo sapiens
From the text: as §1

[4] = tested on: human hepatic cell line (WRL-68); test: MTT cytotoxicity assay, normal WRL-68; assay type: cell-based; conditions: normal cells
From the text: as §1

[5] = tested on: primary dermal fibroblasts cell line (HDFa); test: MTT cytotoxicity assay, normal HDFa; assay type: cell-based; conditions: Homo sapiens, normal cells
From the text: as §1

[6] = tested on: human mammary epithelial cell line (MCF10A); test: MTT cytotoxicity assay, normal MCF10A; assay type: cell-based; conditions: MCF-10A, normal cells
From the text: as §1

[7] = DPPH free radical scavenging assay; conditions: for DPPH IC50: 30 min, 517 nm
Procedure: The free radical scavenging activities of the extracts, peperomin A and phytosterol mixture were estimated using the 1,1-diphenyl-2-picryl-hydrazyl (DPPH) assay. Quantitative estimation was done in 96-well ELISA plates in triplicate. Complete of 70 µL of DMSO was brought for each well followed by 100 µL of plant extract solution or isolated tested compounds. Various concentrations of each extract and peperomin A (15.6 –1,000 µg/mL) were used. Similar concentrations of ascorbic acid were used as positive control. A total of 30 µL DPPH (3.14 X 10^−3 µM) was added to each well, then the plate was allowed to stand in the dark at 25 °C for 30 min, and the absorbance was later recorded taken at 517 nm. The free radical scavenging activity was calculated using the following equation: Free radical scavenging activity%=Abs of DPPH−Abs of sample∕Abs of DPPH×100%. where Abs is absorbance. The relationship between each concentration and its scavenging percentage was plotted, and the IC50 value was calculated by interpolation. Scavenging activity was represented by IC50 values (the extract concentration that scavenges 50% of DPPH radicals).

[8] = FRAP ferric reducing assay; conditions: for FRAP: 593 nm
Procedure: The antioxidant power of P. blanda extracts by ferric reduction was done by preparing fresh FRAP reagent from acetate buffer (pH 3.6), a solution of 10 mM TPTZ (2,4,6-tri(2-pyridyl)-s-triazine) in 40 mM HCl and a solution of 20 mM iron (III) chloride in a ratio of 10:1:1 (%v/v) ([Brand-Williams, Cuvelier & Berset, 1995]; [Mohammadzadeh et al., 2007]; [Mothana et al., 2009]; [Salazar-Aranda et al., 2011]), butylated hydroxytoluene (BHT), and ascorbic acid were used as controls. Then, 10 µL of plant extracts, peperomin A, ferrous sulfate (standard) and the controls were added to 300 µL FRAP reagent (triplicate) in the dark and the absorbance was measured at 593 nm. A linear standard curve was constructed using […] FeSO4. The results were represented as the ratio of the concentration of iron(III) mM over the extract dry weight (g).

HIV-1 IIIB = conditions: no reference given; cited from earlier work
C8166 cell line = conditions: no reference given; cited from earlier work

SMILES | IC50 ([1]; 24 hr) [µg/mL] | IC50 ([1]; 48hr) [µg/mL] | IC50 ([1]; 72hr) [µg/mL] | IC50 ([2]; HL-60, 24 h, 24 hr) [µg/mL] | IC50 ([2]; HL-60, 48 h, 48hr) [µg/mL] | IC50 ([2]; HL-60, 72 h, 72hr) [µg/mL] | IC50 ([3]; MCF7, 24 h, 24 hr) [µg/mL] | IC50 ([3]; MCF7, 48 h, 48hr) [µg/mL] | IC50 ([3]; MCF7, 72 h, 72hr) [µg/mL] | IC50 ([4]; WRL68, 24 hr) [µg/mL] | IC50 ([4]; WRL68, 48hr) [µg/mL] | IC50 ([4]; WRL68, 72hr) [µg/mL] | IC50 ([5]; 24 hr) [µg/mL] | IC50 ([5]; 48hr) [µg/mL] | IC50 ([5]; 72hr) [µg/mL] | IC50 ([6]; 24 hr) [µg/mL] | IC50 ([6]; 48hr) [µg/mL] | IC50 ([6]; 72hr) [µg/mL] | DPPH IC50 [7] [µg/mL] | FRAP [8] | other results
COc1cc(C(c2cc(OC)c3c(c2)OCO3)[C@@H]2COC(=O)[C@H]2C)cc2c1OCO2 [Peperomin A] | 20.1 ± 0.46 (≈ 48.5 µM) | 18.7 ± 0.73 (≈ 45.1 µM) | 4.62 ± 0.03 (≈ 11.1 µM) | 43.62 ± 0.1 (≈ 105 µM) | 26.34 ± 0.26 (≈ 63.6 µM) | 16.4 ± 0.62 (≈ 39.5 µM) | 40.7 ± 0.92 (≈ 98.3 µM) | 9.22 ± 0.28 (≈ 22.2 µM) | 5.58 ± 0.47 (≈ 13.5 µM) | > 50 | > 50 | 41.5 ± 0.54 (≈ 100 µM) | > 50 | > 50 | > 50 | > 50 | > 50 | > 50 | 536.61 ± 6.00 | 20.79 ± 0.66 M Fe(II)/g | selectivity index values for cancer cells [3]: greater than 1; Selectivity index: ratio of mean IC50 in normal MCF10a over mean IC50 in MCF-7 ([3]; 24 hr): 1.1; Selectivity index: ratio of mean IC50 in normal MCF10a over mean IC50 in MCF-7 ([3]; 48hr): 1.3; Selectivity index: ratio of mean IC50 in normal MCF10a over mean IC50 in MCF-7 ([3]; 72hr): 7.4; free radical scavenging activity (in words) [7]: weak; ferric reducing power (in words) [8]: weak; inhibitory effects on HIV-1 IIIB growth in C8166 cells (cytopathic effect, CPE) (HIV-1 IIIB): moderate inhibitory effects; cytotoxic activity against the C8166 cell line (C8166 cell line): cytotoxic activity
O=C1O[C@H]([C@@H](O)CO)C(O)=C1O [VIT C, ascorbic acid] | – | – | – | – | – | – | – | – | – | – | – | – | – | – | – | – | – | – | 20.40 ± 0.50 | 2603.90 ± 10.54 M Fe(II)/g | –
CC(=O)O[C@H]1C(=O)[C@@]2(C)[C@H]([C@H](OC(=O)c3ccccc3)[C@]3(O)C[C@H](OC(=O)[C@H](O)[C@@H](NC(=O)c4ccccc4)c4ccccc4)C(C)=C1C3(C)C)[C@]1(OC(C)=O)CO[C@@H]1C[C@@H]2O [Paclitaxel] | 3.16 ± 0.02 (≈ 3.7 µM) | 2.15 ± 0.02 (≈ 2.52 µM) | 1.9 ± 0.9 (≈ 2.23 µM) | 12.7 ± 0.4 (≈ 14.9 µM) | 8.67 ± 0.76 (≈ 10.2 µM) | 5.13 ± 0.32 (≈ 6.01 µM) | 5.87 ± 0.19 (≈ 6.87 µM) | 4.47 ± 0.03 (≈ 5.23 µM) | 3.56 ± 0.34 (≈ 4.17 µM) | > 50 | > 50 | > 50 | > 50 | > 50 | > 50 | > 50 | > 50 | > 50 | – | – | IC50 ([3]; MCF7, 72 h, 72 hr, Table 3): 3 ± 0.07 µg/mL (≈ 3.51 µM)
CC[C@]1(O)C[C@@H]2CN(CCc3c([nH]c4ccccc34)[C@@](C(=O)OC)(c3cc4c(cc3OC)N(C)[C@H]3[C@@](O)(C(=O)OC)[C@H](OC(C)=O)[C@]5(CC)C=CCN6CC[C@]43[C@@H]65)C2)C1 [Vinblastine] | 4.11 ± 0.06 (≈ 5.07 µM) | 3.56 ± 0.07 (≈ 4.39 µM) | – | 5.91 ± 0.31 (≈ 7.29 µM) | 4.81 ± 0.19 (≈ 5.93 µM) | 2.36 ± 0.08 (≈ 2.91 µM) | 14.6 ± 0.16 (≈ 18 µM) | 7.57 ± 0.5 (≈ 9.33 µM) | 5.16 ± 0.42 (≈ 6.36 µM) | > 50 | > 50 | > 50 | > 50 | > 50 | > 50 | > 50 | > 50 | > 50 | – | – | IC50 ([1]; 72 hr, Table 3): 0.57 ± 0.035 µg/mL (≈ 0.703 µM); IC50 ([2]; HL-60, 72 h, 72 hr, Table 3): 5 ± 0.01 µg/mL (≈ 6.17 µM)
COc1cc([C@@H](c2cc(OC)c3c(c2)OCO3)[C@@H]2COC(=O)[C@H]2C)cc(OC)c1OC [peperomin B] | – | – | – | – | – | – | – | – | – | – | – | – | – | – | – | – | – | – | – | – | inhibitory effects on HIV-1 IIIB growth in C8166 cells (cytopathic effect, CPE) (HIV-1 IIIB): moderate inhibitory effects; cytotoxic activity against the C8166 cell line (C8166 cell line): cytotoxic activity
Cc1cc(C(C)(C)C)c(O)c(C(C)(C)C)c1 [BHT, butylated hydroxytoluene] | – | – | – | – | – | – | – | – | – | – | – | – | – | – | – | – | – | – | 286.64 ± 8.54 | 1738.80 ± 9.53 M Fe(II)/g | –
